In patent US20230190761A1, “METHYLENE BLUE STABILIZED MRNA COMPOSITIONS” (ModernaTX, Inc., priority 2020, published 2023):
“Also recorded” adds a separate entry of the source.

Columns and labels:
Type in all cases: physicochemical
[1] = tested on: mRNA encapsulated within LNPs; experiment: mRNA-LNP stability with thionine or methylene blue, main peak purity by fragmentation analysis; settings: mRNA-LNP with incremental dye 0.01-1.5 mM, 3 weeks at room temperature and 40° C., relative to no dye
Source text: mRNA purity can be determined by reverse phase high-performance liquid chromatography (RP-HPLC) size based separation. This method can be used to assess mRNA integrity by a length-based gradient RP separation and UV detection of RNA at 260 nm. As used herein “main peak” or “main peak purity” refers to the RP-HPLC signal detected from mRNA that corresponds to the full size mRNA molecule loaded within a given LNP formulation. mRNA purity can also be assessed by fragmentation analysis. Fragmentation analysis (FA) is a method by which nucleic acid (e.g., mRNA) fragments can be analyzed by capillary electrophoresis. Fragmentation analysis involves sizing and quantifying nucleic acids (e.g., mRNA), for example by using an intercalating dye coupled with an LED light source. Such analysis may be completed, for example, with a Fragment Analyzer from Advanced Analytical Technologies, Inc.
A study was performed to compare the effects of thionine, a phenothiazinium dye that permeates LNPs, with methylene blue which permeates LNPs to a lesser extent. A series of mRNA-LNP samples were prepared containing incremental levels of each dye as detailed in Table 1. These samples were incubated under two temperature conditions of room temperature and 40 C for 3 weeks prior to analysis.

mRNA [2] = experiment: Differential scanning calorimetry of mRNA with methylene blue
Method: To test the effect of methylene blue on folding and intramolecular hybridization of mRNA, differential scanning calorimetry (DSC) was conducted on samples of mRNA containing no methylene blue, 50 μM methylene blue, or 100 μM methylene blue. […] At higher methylene blue concentrations (approximately 0.5 mM), precipitation of mRNA occurs, but at the concentrations of this experiment the mRNA-dye complex remains soluble. It is notable that the sharp transitions at ˜74° C. and 80° C. are not affected by the presence of dye, whereas there is a massive effect on the least thermally stable transitions occurring in the <60° C. region, shown by the large rightward shift of the curves with the addition of methylene blue. By comparison, therapeutic protein stabilization strategies commonly involve screening of excipient effects on thermal unfolding, however, the thermal shifts observed for optimized protein formulations typically involve thermal shifts of only a few degrees.
The DSC thermogram show the effects on the thermal unfolding profile of mRNA in the presence or absence of […] methylene blue. When the methylene blue-containing sample was dialyzed to remove dye, the resulting thermogram corresponded closely to that of the original no-dye sample. […] All the fine details of the thermal unfolding profile were restored post-dialysis, indicating a restoration of the original structure-function of the mRNA.

mRNA-LNP formulations = experiment: mRNA-LNP stability in differing buffer conditions with or without methylene blue (fragmentation analysis and RP-HPLC); settings: 150 mM NaCl, 2 mM MB
Method: This example discusses stabilization effects of methylene blue on mRNA-LNP formulations in varying buffer conditions. To match experiments conducted on lyophilized products, which were reconstituted in saline, and refrigerated/frozen formulations in TRIS-Sucrose, two buffers across the range of pH were tested. Sodium chloride was added to mimic saline, as it can cause methylene blue to crash out of solution.

mRNA [3] = experiment: Circular dichroism of mRNA with methylene blue; settings: addition of methylene blue (210 μM, 367 μM)
Source text: The effect of methylene blue on the conformational state of mRNA is also apparent from the circular dichroism (CD) spectra shown in FIG. 20. The CD bands correspond to the intrinsic CD of the mRNA itself. […] The stabilizing effect of methylene blue observed on mRNA may be attributed to this binding and conformational stabilization evident from the DSC thermograms (FIGS. 18 and 19).

[4] = tested on: mRNA in LNP formulation containing two mRNA; experiment: Chemical stability of mRNA-LNP after 5 months refrigerated storage
Method: This example relates to stabilization of mRNA in LNP formulations by the addition of methylene blue over long-term refrigerated storage. […] To confirm that this stabilization effect would also occur with long-term refrigerated storage, a study was conducted to evaluate the effect of various concentrations of methylene blue (0, 0.5, 1, 1.5 and 2.0 mM) on the stability of a lipid nanoparticle formulation containing two distinct mRNA compounds stored at 5° C.
To determine the effects of methylene blue on the chemical stability of mRNA-LNP formulations over long-term refrigerated storage, mRNA purity, mRNA fragmentation, and mRNA-lipid adduct formation were measured over time in mRNA-LNP samples containing varying concentrations of methylene blue (A=0 mM, B=0.5 mM, C=1.0 mM, D=1.5 mM, E=2.0 mM methylene blue). Total purity was determined according to main peak percentage by RP-HPLC (FIG. 13A), fragmentation was determined according to fragmentation analysis (FIG. 13B), and mRNA-lipid adduct formation was determined according to RP-HPLC (FIG. 13C).

**Q.** `CN(C)c1ccc2nc3ccc(N(C)C)cc3[s+]c2c1` [methylene blue] was tested. Which “% main peak purity by fragmentation analysis (mRNA stability)” value [1] did it give?
**A.** stabilized it; also recorded: significantly improved mRNA stability relative to the no-dye control

**Q.** And the “methylene blue concentration with appreciable impact to mRNA conformational stability (DSC)” value (mRNA [2])?
**A.** ~10 µM

**Q.** And the “methylene blue concentration giving dramatic global changes in overall mRNA structure (DSC)” value (mRNA [2]; 0.3 μM mRNA, 32.5 mM sodium acetate, pH 5.0)?
**A.** ≥ 367.8 µM

**Q.** What about the “folded stability of mRNA (DSC thermogram)” value (mRNA [2]; 50 μM or 100 μM methylene blue vs no methylene blue) of the same compound?
**A.** enormous enhancement of folded stability

**Q.** And the “reversibility of methylene blue binding to mRNA (DSC after dialysis)” value (mRNA [2]; 100 mM methylene blue, dialyzed to remove dye)?
**A.** reversible

**Q.** And the “lowest methylene blue concentration affecting the folded structure of mRNA (DSC)” value (mRNA [2]; mRNA at 0.3 μM)?
**A.** 11.3 µM

**Q.** What about the “methylene blue concentration at which precipitation of mRNA occurs” value (mRNA [2]; mRNA in solution) of the same compound?
**A.** approximately 0.5 mM

**Q.** What about the Adduct (mRNA-LNP formulations; pH 7, TRIS-sucrose buffer) of the same compound?
**A.** 17.6%

**Q.** What about the Fragmentation (mRNA-LNP formulations; pH 7, TRIS-sucrose buffer) of the same compound?
**A.** 16.0%

**Q.** What about the Main peak (mRNA-LNP formulations; pH 7, TRIS-sucrose buffer) of the same compound?
**A.** 66.4%

**Q.** What about the Adduct (mRNA-LNP formulations; pH 7, phosphate buffer) of the same compound?
**A.** 23.9%

**Q.** And the Fragmentation (mRNA-LNP formulations; pH 7, phosphate buffer)?
**A.** 17.1%

**Q.** What about the Main peak (mRNA-LNP formulations; pH 7, phosphate buffer) of the same compound?
**A.** 59.1%

**Q.** And the Adduct (mRNA-LNP formulations; pH 7.5, TRIS-sucrose buffer)?
**A.** 16.4%

**Q.** And the Fragmentation (mRNA-LNP formulations; pH 7.5, TRIS-sucrose buffer)?
**A.** 19.5%

**Q.** What about the Main peak (mRNA-LNP formulations; pH 7.5, TRIS-sucrose buffer) of the same compound?
**A.** 64.1%

**Q.** And the Adduct (mRNA-LNP formulations; pH 7.5, phosphate buffer)?
**A.** 22.0%

**Q.** And the Fragmentation (mRNA-LNP formulations; pH 7.5, phosphate buffer)?
**A.** 18.7%

**Q.** And the Main peak (mRNA-LNP formulations; pH 7.5, phosphate buffer)?
**A.** 59.4%

**Q.** And the Adduct (mRNA-LNP formulations; pH 8, TRIS-sucrose buffer)?
**A.** 15.9%

**Q.** What about the Fragmentation (mRNA-LNP formulations; pH 8, TRIS-sucrose buffer) of the same compound?
**A.** 22.9%

**Q.** What about the Main peak (mRNA-LNP formulations; pH 8, TRIS-sucrose buffer) of the same compound?
**A.** 61.2%

**Q.** What about the Adduct (mRNA-LNP formulations; pH 8, phosphate buffer) of the same compound?
**A.** 22.7%

**Q.** And the Fragmentation (mRNA-LNP formulations; pH 8, phosphate buffer)?
**A.** 25.0%

**Q.** And the Main peak (mRNA-LNP formulations; pH 8, phosphate buffer)?
**A.** 52.2%

**Q.** And the Adduct (mRNA-LNP formulations; pH 8.5, TRIS-sucrose buffer)?
**A.** 13.3%

**Q.** What about the Fragmentation (mRNA-LNP formulations; pH 8.5, TRIS-sucrose buffer) of the same compound?
**A.** 32.5%

**Q.** What about the Main peak (mRNA-LNP formulations; pH 8.5, TRIS-sucrose buffer) of the same compound?
**A.** 54.1%

**Q.** What about the “intrinsic CD bands of mRNA” value (mRNA [3]) of the same compound?
**A.** significant perturbation in these bands

**Q.** And the “optimal methylene blue concentration with respect to adduct formation” value ([4]; 5 months refrigerated storage, RP-HPLC)?
**A.** 1.5 mM

**Q.** What about the mRNA fragmentation rate ([4]; methylene blue as low as 0.5 mM, 5 months (151 days) refrigerated storage) of the same compound?
**A.** significantly inhibit mRNA fragmentation rate relative to LNP compositions lacking dye; also recorded: significantly inhibited relative to control
